Assay results taken from patent US11077090B2, “Compounds and compositions and uses thereof” (Sunovion Pharmaceuticals Inc., priority 2016, dated 2021).

Tests used:
Type in all cases: in vivo
Adult male AJ mice = assay: Tail suspension test (TST); design: key: −: No decrease in Mean Total Time Immobile; +: Significant decrease in Mean Total Time Immobile (P < 0.05 vs vehicle)
Description: The tail suspension test (TST) is a rodent screening test for potential (human) antidepressant drugs. It is based on the assumption that an animal will actively try to escape an aversive (stressful) stimulus. If escape is impossible, the animal will eventually stop trying (“give up”). In the TST, a mouse is suspended by the tail so that its body dangles in the air, head downward. Mice initially struggle to face upward and climb to a solid surface. When the animal stops struggling and hangs immobile it is considered to have “given up”. Shorter periods of immobility are characteristic of antidepressant-like activity. Accordingly, longer periods of immobility are considered indicative of a depressive-like state. It has been shown that treatment with an antidepressant drug will decrease the time the animal spends immobile. See generally L. Steru et al., Psychopharmacology (Berl). 1985; 85(3):367-70; B. Thierry et al., Psychopharmacology 1986; 90:284-85.
Adult male AJ mice from Jackson Laboratories received vehicle (sterile water) or test compound orally by gavage, or the positive control desipramine (20 mg/kg, i.p.), in 10 mL/kg injection volumes, 30 min before being subjected to the Tail Suspension Test. In this test, mice are placed in the Tail Suspension chambers (white polyvinylchloride cubicles measuring 33×33×31.75 cm Med Associates, Inc. St. Albans, Vt.) by a piece of transparent (Scotch®) tape attached to the tail, from about the mid-tail, with approximately 2 cm of tape past the end of the tail for 10 min during which the time spent immobile is measured. A reduction in total time immobile relative to the vehicle condition indicates an antidepressant drug-like response.

compound-treated mice = assay: Neuropharmacological assay (SmartCube): behavioral activity signature and minimal effective dose; settings: for AD: ADHD (probability of activity signature) / AG: analgesic (probability of activity signature) / AX: anxiolytic (probability of activity signature) / CE: cognitive enhancer (probability of activity signature) / DP: anti-depressant (probability of activity signature) / MS: mood stabilizer (probability of activity signature) / PS: anti-psychotic (probability of activity signature) / SD: sedative hypnotic (probability of activity signature) / UN: uncharacterized CNS activity (probability of activity signature): i.p. 15 min before test, most efficacious dose(s)
Procedure, shortened: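 Video-recorded behavior is compared algorithmically against a reference-compound database, yielding class probabilities (best dose reported). Compounds given i.p. in NMP/PEG/propylene glycol 15 min pre-test at 3 doses; potency as MED, the dose (mpk, range usually 0.3–30) reaching ≥50% total activity.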

Male C57Bl/6J mice = assay: Amphetamine induced hyperlocomotion assay; design: key: #: Significant increase in total distance traveled (P < 0.05 vs vehicle + AMPH group); −: No change in total distance traveled; Significant decrease in total distance traveled (P < 0.05 vs vehicle + AMPH group)
Experimental: Psychostimulants such as amphetamine (AMPH) are frequently used to induce or mimic a manic-like or psychotic-like state. AMPH administration to rodents increases horizontal locomotion, vertical rearing and repetitive stereotyped behaviors, and typical antipsychotic drugs, such as haloperidol, can reduce these behaviors. The antimanic/antipsychotic-like effects of test compounds were evaluated in male C57Bl/6J mice from Jackson Laboratories Mice were acclimatized to the experimental room for at least 1 hour prior to testing. The mice (n=10 per group) were administered vehicle or test compound orally by gavage (10 mL/kg injection volume) and placed individually in the novel open field (OF) chambers (Med Associates) for 30 minutes of baseline activity measurement. Mice were then injected with either water or AMPH (4 mg/kg, i.p., 10 mL/kg) and placed back in the same individual OF chambers for a 60-minute testing session during which the effects of test compounds on stimulant-induced behaviors (total distance traveled, rearing and stereotypy) were measured. A reduction in total distance traveled relative to the vehicle+AMPH condition indicates an antimanic/antipsychotic drug-like response.

[1] = MED = dose having 50% or more total activity

SMILES | Mean Total Time Immobile (Adult male AJ mice; 10 mg/kg PO) | Mean Total Time Immobile (Adult male AJ mice; 30 mg/kg PO) | Potency: minimal effective dose (MED) (compound-treated mice; [1]) | AD: ADHD (probability of activity signature) (compound-treated mice) | AG: analgesic (probability of activity signature) (compound-treated mice) | AX: anxiolytic (probability of activity signature) (compound-treated mice) | CE: cognitive enhancer (probability of activity signature) (compound-treated mice) | DP: anti-depressant (probability of activity signature) (compound-treated mice) | MS: mood stabilizer (probability of activity signature) (compound-treated mice) | PS: anti-psychotic (probability of activity signature) (compound-treated mice) | SD: sedative hypnotic (probability of activity signature) (compound-treated mice) | UN: uncharacterized CNS activity (probability of activity signature) (compound-treated mice) | Total Distance Traveled (Male C57Bl/6J mice; 10 mg/kg PO Compound + AMPH) | Total Distance Traveled (Male C57Bl/6J mice; 30 mg/kg PO Compound + AMPH) | Mean Total Time Immobile (Adult male AJ mice; 3 mg/kg PO) | minimal effective dose (compound-treated mice; Mus musculus, ip, MED = dose having 50% or more total activity, read-out: Potency: minimal effective dose (MED)) | Total Distance Traveled (Male C57Bl/6J mice; 3 mg/kg PO Compound + AMPH)
N[C@H]1COCc2ccc(F)cc21 (single isomer, unassigned) [Example 114] | − | + | C (>10 to ≤30 mpk) | + (LOQ ≤ + <5%) | ++ (5% ≤ ++ <25%) | ++ (5% ≤ ++ <25%) | ++ (5% ≤ ++ <25%) | ++ (5% ≤ ++ <25%) | + (LOQ ≤ + <5%) | ++ (5% ≤ ++ <25%) | + (LOQ ≤ + <5%) | +++ (25% ≤ +++ <50%) | − | + |  |  | 
Cc1ccc2c(c1)[C@H](N)COC2 [Example 123] | − | − | A (≤3 mpk) | + (LOQ ≤ + <5%) | ++ (5% ≤ ++ <25%) | ++ (5% ≤ ++ <25%) | + (LOQ ≤ + <5%) | ++ (5% ≤ ++ <25%) | + (LOQ ≤ + <5%) | ++ (5% ≤ ++ <25%) | ++ (5% ≤ ++ <25%) | +++ (25% ≤ +++ <50%) | − | + |  |  | 
N[C@@H]1COCc2ccc3ccccc3c21 (single isomer, unassigned) [Example 117] | + | − | B (>3 to 10 mpk) | + (LOQ ≤ + <5%) | ++ (5% ≤ ++ <25%) | ++ (5% ≤ ++ <25%) | ++ (5% ≤ ++ <25%) | ++ (5% ≤ ++ <25%) | ++ (5% ≤ ++ <25%) | +++ (25% ≤ +++ <50%) | + (LOQ ≤ + <5%) | + (LOQ ≤ + <5%) | − | + |  |  | 
N[C@H]1COCc2ccc3ccccc3c21 (single isomer, unassigned) [Example 118] | − | − | B (>3 to 10 mpk) | + (LOQ ≤ + <5%) | ++ (5% ≤ ++ <25%) | ++ (5% ≤ ++ <25%) | ++ (5% ≤ ++ <25%) | +++ (25% ≤ +++ <50%) | + (LOQ ≤ + <5%) | ++ (5% ≤ ++ <25%) | ++ (5% ≤ ++ <25%) | + (LOQ ≤ + <5%) | − | + |  |  | 
N[C@@H]1COCc2ccccc21 (single isomer, unassigned) [Example 111] | − | − |  | + (LOQ ≤ + <5%) | ++ (5% ≤ ++ <25%) | ++ (5% ≤ ++ <25%) | ++ (5% ≤ ++ <25%) | ++ (5% ≤ ++ <25%) | + (LOQ ≤ + <5%) | ++ (5% ≤ ++ <25%) | + (LOQ ≤ + <5%) | +++ (25% ≤ +++ <50%) | − | + | − | 3 to 10 mg/kg | #
Cc1ccc2c(c1)[C@@H](N)COC2 [Example 124] | − | − | B (>3 to 10 mpk) | + (LOQ ≤ + <5%) | ++ (5% ≤ ++ <25%) | +++ (25% ≤ +++ <50%) | ++ (5% ≤ ++ <25%) | ++ (5% ≤ ++ <25%) | + (LOQ ≤ + <5%) | ++ (5% ≤ ++ <25%) | ++ (5% ≤ ++ <25%) | +++ (25% ≤ +++ <50%) | − | + |  |  | 
